The results in this text go back to US3985764A, “Production of fused oxazoline azetidinones” (Queen's University, priority 1974, dated 1976).

The test system of the assay is S. lutea. As to the kind of experiment: antibacterial activity vs. S. lutea (plate assay). The format is cell-based. Particulars: versus S. lutea.

For the compound `CC1(C)O[C@@H]2[C@H](N3C(=O)c4ccccc4C3=O)C(=O)N2[C@H]1C(=O)O` [6-phthalimido oxapenicillin], the “antibacterial activity relative to phthalimidopenicillin” value is listed as “one-tenth the level of phthalimidopenicillin”.
